Experimental data as given in the RepoRT retention time repository.

Assay: HILIC, Merck SeQuant ZIC-HILIC, 25 °C, 0.25 mL/min; A: water + 16 mM ammonium formate; B: acetonitrile + 0.1% formic acid, pH 3; gradient (min/%B) 0/97 2/97 10/70 15/10 17/10 18/97 25/97
Conditions: stereoisomer not certain

| SMILES | LC retention time |
| --- | --- |
| O=Cc1ccc(O)cc1 [4-HYDROXYBENZALDEHYDE] | 1.77 min |
| CC(=O)c1ccc(O)cc1O [2'-4'-DIHYDROXYACETOPHENONE] | 1.72 min |
| O=C(O)Cc1ccc(O)cc1 [4-Hydroxyphenylacetic acid] | 2.34 min |
| NC(Cc1c[nH]c2ccccc12)C(=O)O (configuration not stated) [TRYPTOPHAN] | 11.4 min |
| NC1(C(=O)O)CC1 [1-AMINOCYCLOPROPANECARBOXYLATE] | 13.5 min |
| O=C(O)CC(CC(=O)O)C(=O)O [Tricarballylic acid] | 9.58 min |
| Cc1cc(O)cc2c1OC(C)(CCC(=O)O)CC2 (configuration not stated) [delta CEHC] | 1.87 min |
| CC(=O)OCC(N)C(=O)O (configuration not stated) [O-ACETYLSERINE] | 12.4 min |
| N[C@@H](Cc1cnc[nH]1)C(=O)O [L-Histidine] | 15.8 min |
| Nc1ccccc1O [2-AMINOPHENOL] | 2.11 min |
| O=C(O)c1c(O)cccc1O [2-6-Dihydroxybenzoic acid] | 2.07 min |
| O=c1cccc[nH]1 [2-HYDROXYPYRIDINE] | 2.15 min |
| NC(=O)c1ncn(C2OC(COP(=O)(O)O)C(O)C2O)c1N (configuration not stated) [AICAR] | 14.2 min |
| O=C(O)C(=O)CO [HYDROXYPYRUVATE] | 13.3 min |
| NC(C(=O)O)C(O)C(O)C(O)CO (configuration not stated) [GLUCOSAMINATE] | 14.7 min |
| NCCCCNCCCN [SPERMIDINE] | 19.5 min |
| O=C(O)CNC(=O)c1ccccc1 [HIPPURATE] | 2.12 min |
| NC(N)=NCC(=O)O [GUANIDINOACETATE] | 14 min |
| N[C@H](C(=O)O)c1ccc(O)cc1 [4-HYDROXY-L-PHENYLGLYCINE] | 13.3 min |

| SMILES | LC retention time |
| --- | --- |
| O=C(O)c1ccc[nH]1 [PYRROLE-2-CARBOXYLATE] | 2.08 min |
| C[C@@H](O)[C@H](N)C(=O)O [L-Threonine] | 13.7 min |
| Nc1ncnc2c1ncn2C1OC(COP(=O)(O)OP(=O)(O)OP(=O)(O)O)C(O)C1O (configuration not stated) [ADENOSINE TRIPHOSPHATE] | 15.5 min |
| Cc1ncc(C[n+]2csc(CCOP(=O)(O)O)c2C)c(N)n1 [THIAMINE MONOPHOSPHATE] | 16.4 min |
| NCCc1c[nH]c2ccccc12 [TRYPTAMINE] | 10.5 min |
| O=C([O-])C(O)C(O)C(=O)[O-] (stereo not drawn) [MESO-TARTRATE] | 13.6 min |
| CCCCCCCCCCCCCC(=O)OCC(O)CO (configuration not stated) [GLYCEROL-MYRISTATE] | 1.64 min |
| Nc1ncnc2c1ncn2C1OC(COP(=O)(O)O)C(O)C1O (configuration not stated) [ADENOSINE-MONOPHOSPHATE] | 13.6 min |
| NCC(=O)NCC(=O)O [Gly-Gly] | 14.9 min |
| Nc1c(O)cccc1C(=O)CC(N)C(=O)O (configuration not stated) [HYDROXYKYNURENINE] | 12 min |
| COC(=O)Cc1c[nH]c2ccccc12 [INDOLE-3-METHYL ACETATE] | 1.61 min |
| CC(=O)N[C@@H](Cc1ccc(O)cc1)C(=O)O [N-Acetyl-L-tyrosine] | 2.16 min |
| CCCCCCCCC=CCCCCCCCC(=O)OCC(O)COP(=O)(O)OCCN (configuration not stated) [18-1_LysoPE] | 10.3 min |
| O=C([O-])C(O)c1ccccc1 (configuration not stated) [MANDELATE] | 2.08 min |
| CC12CCC(=O)C=C1CCC1C2C(=O)CC2(C)C1CCC2(O)C(=O)CO (configuration not stated) [CORTISONE] | 1.8 min |
| CCCCCCCCCCCCCCCC(=O)OCC(O)COP(=O)(O)OCCN (configuration not stated) [16-0_LysoPE] | 10.2 min |
| CC1OC(n2cnc3c(N)ncnc32)C(O)C1O (configuration not stated) [5'-DEOXYADENOSINE] | 2.24 min |
| Nc1ccc(C(=O)O)cn1 [6-Aminopyridine-3-carboxylic acid] | 8.01 min |
